This test concerns HEK293T cells carrying the ATF4 luciferase reporter. As to the kind of experiment: ATF4-Luc assay (in vitro model of VWMD). The format is cell-based, human. As to conditions: Homo sapiens, HEK-293T, 1 μg/mL tunicamycin, 7 hours, One Glo luminescence. In a few lines: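 Tunicamycin (1 μg/mL) stress with co-added compound for 7 hours in HEK293T cells stably carrying an ATF4 5′-UTR–luciferase reporter. EC50 values come from the luminescent signal (One Glo).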

For `O=C(NC12CC(c3cnc(-c4ccc(Cl)c(F)c4)o3)(C1)C2)[C@H]1C[C@@H](O)c2cc(Cl)ccc2O1` [Compound 305, (2R,4R)-6-chloro-N-{3-[2-(4-chloro-3-fluorophenyl)-1,3-oxazol-5-yl]bicyclo[1.1.1]pentan-1-yl}-4-hydroxy-3,4-dihydro-2H-1-benzopyran-2-carboxamide], the EC50 (usually the concentration at which the effect is half-maximal) is under 10 nM. Regarding `O=C(NC12CC(C3=NOC([C@H]4C[C@@H](O)C4)C3)(C1)C2)[C@@H]1C[C@@H](O)c2cc(Cl)ccc2O1` (stereo partly drawn) [Compound 228, (2S,4R)-6-chloro-4-hydroxy-N-(3-{5-[cis-3-hydroxycyclobutyl]-4,5-dihydro-1,2-oxazol-3-yl}bicyclo[1.1.1]pentan-1-yl)-3,4-dihydro-2H-1-benzopyran-2-carboxamide], the EC50 is over 2000 nM. The result for `O=C1C[C@@H](C(=O)N[C@@H]2CC[C@@H](c3nnc([C@H]4C[C@@H](OC(F)(F)F)C4)o3)OC2)Oc2ccc(Cl)cc21` [Compound 177, (2S)-6-chloro-4-oxo-N-[(3R,6S)-6-{5-[cis-3-(trifluoromethoxy)cyclobutyl]-1,3,4-oxadiazol-2-yl}oxan-3-yl]-3,4-dihydro-2H-1-benzopyran-2-carboxamide] reads 50 to 250 nM; that for `O=C1CC(C(=O)NC23CCC(c4nnc([C@H]5C[C@@H](OC(F)(F)F)C5)o4)(CC2)CC3)Oc2ccc(Cl)cc21` (stereo partly drawn) [Compound 167, 6-chloro-4-oxo-N-(4-{5-[cis-3-(trifluoromethoxy)cyclobutyl]-1,3,4-oxadiazol-2-yl}bicyclo[2.2.2]octan-1-yl)-3,4-dihydro-2H-1-benzopyran-2-carboxamide], 10 to 50 nM. Regarding `O=C(NC12CC(C(=O)NCc3ccc(C(F)(F)F)cn3)(C1)C2)[C@H]1C[C@@H](O)c2cc(Cl)ccc2O1` (racemic) [Compound 123, rac-(2R,4R)-6-chloro-4-hydroxy-N-[3-(([5-(trifluoromethyl)pyridin-2-yl]methyl)carbamoyl)bicyclo[1.1.1]pentan-1-yl]-3,4-dihydro-2H-1-benzopyran-2-carboxamide], the EC50 was 50 to 250 nM. In the case of `O=C(NC12CC(n3cc(-c4ccc(Cl)cc4)cn3)(C1)C2)[C@@H]1C[C@@H](O)c2cc(Cl)ccc2O1` [Compound 236, (2S,4R)-6-chloro-N-{3-[4-(4-chlorophenyl)-1H-pyrazol-1-yl]bicyclo[1.1.1]pentan-1-yl}-4-hydroxy-3,4-dihydro-2H-1-benzopyran-2-carboxamide], the EC50 is under 10 nM. Take `N#C[C@H]1C[C@@H](Oc2nc(C34CC(NC(=O)[C@H]5C[C@@H](O)c6cc(Cl)ccc6O5)(C3)C4)cs2)C1` [Compound 286, (2R,4R)-6-chloro-N-[3-(2-{[cis-3-cyanocyclobutyl]oxy}-1,3-thiazol-4-yl)bicyclo[1.1.1]pentan-1-yl]-4-hydroxy-3,4-dihydro-2H-1-benzopyran-2-carboxamide]: the EC50 lay in the range of 500 to 2000 nM. For the compound `O=C(CO[C@H]1C[C@@H](OC(F)(F)F)C1)NC12CC(NC(=O)[C@H]3C[C@@H](O)c4cc(Cl)ccc4O3)(C1)C2` (racemic) [Compound 114, rac-(2R,4R)-6-chloro-4-hydroxy-N-[3-(2-{[(1s,3s)-3-(trifluoromethoxy)cyclobutyl]oxy}acetamido)bicyclo[1.1.1]pentan-1-yl]-3,4-dihydro-2H-1-benzopyran-2-carboxamide], the EC50 was under 10 nM.

Regarding `O=C1C[C@H](C(=O)NC23CC(N4CCC(c5ccc(Cl)cc5)C4=O)(C2)C3)Oc2ccc(Cl)cc21` (stereo partly drawn) [Compound 224, (2R)-6-chloro-N-{3-[3-(4-chlorophenyl)-2-oxopyrrolidin-1-yl]bicyclo[1.1.1]pentan-1-yl}-4-oxo-3,4-dihydro-2H-1-benzopyran-2-carboxamide], the EC50 is over 2000 nM. For `O=C(CO[C@H]1C[C@@H](OC(F)(F)F)C1)NC12CCC(NC(=O)[C@@H]3C[C@@H](O)c4cc(Cl)ccc4O3)(CC1)CC2` [Compound 239, (2S,4R)-6-chloro-4-hydroxy-N-[4-(2-{[cis-3-(trifluoromethoxy)cyclobutyl]oxy}acetamido)bicyclo[2.2.2]octan-1-yl]-3,4-dihydro-2H-1-benzopyran-2-carboxamide], the EC50 was in the range of 10 to 50 nM. The result for `O=C(NC12CC(c3cnn(-c4ccc(Cl)c(F)c4)c3)(C1)C2)[C@@H]1C[C@@H](O)c2cc(Cl)ccc2O1` [Compound 238, (2S,4R)-6-chloro-N-{3-[1-(4-chloro-3-fluorophenyl)-1H-pyrazol-4-yl]bicyclo[1.1.1]pentan-1-yl}-4-hydroxy-3,4-dihydro-2H-1-benzopyran-2-carboxamide] reads 10 to 50 nM. In the case of `O=C(CO[C@H]1C[C@@H](OC(F)(F)F)C1)NC12CCC(NC(=O)[C@H]3C[C@@H](O)c4cc(Cl)ccc4O3)(CC1)C[C@@H]2O` [Compound 117, (2R,4R)-6-chloro-4-hydroxy-N-[(3S)-3-hydroxy-4-(2-{[(1s,3R)-3-(trifluoromethoxy)cyclobutyl]oxy}acetamido)bicyclo[2.2.2]octan-1-yl]-3,4-dihydro-2H-1-benzopyran-2-carboxamide] it was under 10 nM; in that of `O=C(NC12CC(n3cnc(-c4ccc(Cl)cc4)c3)(C1)C2)[C@H]1C[C@@H](O)c2cc(Cl)ccc2O1` [Compound 281, (2R,4R)-6-chloro-N-{3-[4-(4-chlorophenyl)-1H-imidazol-1-yl]bicyclo[1.1.1]pentan-1-yl}-4-hydroxy-3,4-dihydro-2H-1-benzopyran-2-carboxamide], under 10 nM; in that of `O=C1CC(C(=O)N[C@@H]2CC[C@@H](C(=O)NCc3cn4ccc(Cl)cc4n3)OC2)Oc2ccc(Cl)cc21` (stereo partly drawn) [Compound 140, 6-chloro-N-[(3R,6S)-6-{[(7-chloroimidazo[1,2-a]pyridin-2-yl)methyl]carbamoyl}oxan-3-yl]-4-oxo-3,4-dihydro-2H-1-benzopyran-2-carboxamide], 50 to 250 nM. For the compound `O=C(NC12CC(n3ccc(-c4ccc(Cl)cc4)c3)(C1)C2)[C@@H]1C[C@@H](O)c2cc(Cl)ccc2O1` [Compound 241, (2S,4R)-6-chloro-N-{3-[3-(4-chlorophenyl)-1H-pyrrol-1-yl]bicyclo[1.1.1]pentan-1-yl}-4-hydroxy-3,4-dihydro-2H-1-benzopyran-2-carboxamide], the EC50 lay in the range of 50 to 250 nM. For the compound `O=C(NC12CC(c3csc(O[C@H]4C[C@@H](OC(F)(F)F)C4)n3)(C1)C2)[C@H]1C[C@@H](O)c2cc(Cl)ccc2O1` [Compound 300, (2R,4R)-6-chloro-4-hydroxy-N-[3-(2-{[cis-3-(trifluoromethoxy)cyclobutyl]oxy}-1,3-thiazol-4-yl)bicyclo[1.1.1]pentan-1-yl]-3,4-dihydro-2H-1-benzopyran-2-carboxamide], the 50% effective concentration (EC50) was 50 to 250 nM. Take `O=C(NC12CC(N3CC([C@H]4C[C@@H](OC(F)(F)F)C4)OC3=O)(C1)C2)[C@H]1C[C@@H](O)c2cc(Cl)ccc2O1` (stereo partly drawn) [Compound 267, (2R,4R)-6-chloro-4-hydroxy-N-(3-{2-oxo-5-[cis-3-(trifluoromethoxy)cyclobutyl]-1,3-oxazolidin-3-yl}bicyclo[1.1.1]pentan-1-yl)-3,4-dihydro-2H-1-benzopyran-2-carboxamide]: the concentration for a half-maximal effect (EC50) lay in the range of 50 to 250 nM. `O=C(NC12CC(n3cnc(-c4ccc(F)c(F)c4)c3)(C1)C2)[C@@H]1C[C@H](O)c2cc(Cl)ccc2O1` [Compound 180, (2S,4S)-6-chloro-N-{3-[4-(3,4-difluorophenyl)-1H-imidazol-1-yl]bicyclo[1.1.1]pentan-1-yl}-4-hydroxy-3,4-dihydro-2H-1-benzopyran-2-carboxamide]: the EC50 fell in the range of 50 to 250 nM.

The values above are taken from patent US20200347043A1, “MODULATORS OF THE INTEGRATED STRESS PATHWAY” (Calico Life Sciences LLC, priority 2019, published 2020).
